Measurements from US20060234909A1, “Compositions and methods for increasing drug efficiency” (priority 2003, published 2006).
Primed or numbered codes have the meaning given here. * marks the point of attachment. 10Ca = carbamate linkage conjugating the peptide-PEG to paclitaxel at C10; 10Ca‑PXL = paclitaxel conjugated at C10 via a carbamate; 3Am‑VBL = vinblastine (VBL) conjugate; PEG(13)″ = PEG(13) linker; PEG(11) = PEG(11) linker; Cbz = O=C(OCc1ccccc1)*; PEG(13) = PEG13 linker; Piv = CC(C)(C)C(=O)*; OBn = c1ccc(CO*)cc1; PXL = paclitaxel

Key:
tubulin = assay: Fluorescence-based tubulin polymerization assay (MPA; enhancement for paclitaxel, inhibition for vinblastine); format: biochemical
Description: Drug-linker constructs may further be screened using functional assays predictive of biological activity. […] Tubulin assembly or inhibition thereof may be monitored by fluorescence using the CytoDYNAMIX Screen™ 10 kit available from Cytoskeleton (1830 S. Acoma St., Denver, Colo.). […] Emission is monitored at 405 nm with excitation at 360 nm. […] Tubulin assembly or inhibition may also be monitored by light scattering which is approximated by the apparent absorption at 350 nm. For paclitaxel drug conjugates BSA is employed to prevent aggregation and glycerol, which is a tubulin polymerization enhancer, is omitted from the kit to increase the signal to noise ratio.
The assay kit (#BK011) was purchased from Cytoskeleton (Denver, Colo.). The assays were carried out according to the manufacturer's instructions, except that 1 mg/ml BSA (Sigma #A3059) was included in all assays. […] Parent drugs and conjugates were tested at 0.75, 1.5, 3 and 10 micromolar final concentration and results represent a comparison of conjugate and parent drug curves obtained from the linear range of the dose responses.
(±SD) represent the average of all tests carried out for all lots of a given compound.

MCF-7 breast carcinoma = assay: Cytotoxicity assay (monolayer), MCF-7; format: cell-based; conditions: MCF7, ML (monolayer); read-out: MCF7 (EC50 Ave) ML;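 also: cells treated 72 h with 6-8 compound doses versus DMSO vehicle controls, EC50 fitted by 4-parameter dose-response curves, averaged across all tests and lots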
[1] = test system: HT-29 colorectal carcinoma; assay: Cytotoxicity assay (monolayer), HT-29; format: cell-based; conditions: HT29, ML (monolayer); read-out: HT29 (EC50 Ave) ML;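 also: monolayer cultures tested in triplicate, compound exposure for three days against DMSO vehicle controls, EC50 fitted from dose-response curves and averaged across all tests and lots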
HUVEC = assay: Cytotoxicity assay (monolayer), HUVEC; format: cell-based; conditions: ML (monolayer), read-out: HUVEC (EC50 Ave) ML
[2] = test system: Normal human foreskin fibroblasts (HFF); conditions: read-out: HFF (EC50 Ave) ML; HFF, ML (monolayer)
MCF-7 cells = conditions: read-out: MCF7 (EC50 Ave) SA; MCF7, SA (soft agar)
HT-29 cells = conditions: read-out: HT29 (EC50 Ave) SA; HT29, SA (soft agar)
Human Src = biological target: T1, Human Src (Homo sapiens, UniProt P12931); assay: Src kinase assay (PKLight ATP utilization, substrate phosphorylation as % of parent peptide); format: biochemical
T1 construct: purchased Upstate (Charlottesville, Va.) 14-326
Procedure: Another test may involve monitoring the consumption of ATP. For example, ATP concentrations at time 0 or after 4 hour incubation may be monitored by luciferase reaction (PKLight kit obtained from Cambrex Corporation, One Meadowlands Plaza, East Rutherford, N.J. 07073), which generate a luminescence readout in the presence of ATP. Assays are initiated by mixing a kinase and a peptide in the presence of 40 μM ATP. After 4 hour of incubation at 30° C., PKLight reagent is added and mixed well, and luminescence readout measured. The rate of peptide phosphorylation is then directly related to the rate of decrease in the observed luminescence. Based on the first test, linkers of appropriate lengths and peptides with an effective amount of kinase activity which may be expected to be retained in the drug conjugate may be found.
Human Src (#14-326) and Akt (#14-276) kinases were purchased from Upstate (Charlottesville, Va.). Kinase reactions were carried out in 50 μl kinase reaction cocktail (25 mM Tris-HCl, pH 7.5, 5 μM β-glycerophosphate, 2 mM DTT, 0.1 mM Na3VO4, 10 mM MgCl2, 1 mg/ml BSA, […], 0.5 to 1.0 units enzyme). Substrates (peptide or drug-peptide conjugate in […]) were added (25, 50 and 100 μM) and the reaction was incubated for 2-5 hours at 30° C. PKLight reagent (23 μl) (Cambrex BioSciences, Rockland, Me.) was mixed with […] of the above kinase reaction and ATP utilization relative to no substrate and no ATP controls was determined by measuring luminescence with a SpectraMax Gemini EM plate reader (Molecular Devices, Sunnyvale, Calif.). Peptide substrates for Src and Akt have been described. For examples, see Lou et al. Letters in Peptide Science, 2, 289-296 (1995); Lou et al. Bioorganic & Medicinal Chemistry, 4, 677-682 (1996); Alessi et al. FEBS Letters, 399, 333-338 (1996). Substrate phosphorylation potential was determined from the linear portion of the substrate concentration dose response as a percentage of the activity observed with the parent peptide used for drug conjugation.

CC[C@]1(O)C[C@@H]2CN(CCc3c([nH]c4ccccc34)[C@@](C(=O)OC)(c3cc4c(cc3OC)N(C)[C@H]3[C@@](O)(C(=O)NCCCCCCNC(=O)OC(C)(C)C)[C@H](O)[C@]5(CC)C=CCN6CC[C@]43[C@@H]65)C2)C1 [VBL-3Am-ALK(6)-NH(B)]
Ave. MPA Act. (tubulin): A (A<50)
EC50 (MCF-7 breast carcinoma): < 20 nM
EC50 [1]: < 20 nM
EC50 (HUVEC): < 20 nM
EC50 [2]: < 20 nM
EC50 (MCF-7 cells): < 20 nM
EC50 (HT-29 cells): < 20 nM

CC[C@]1(O)C[C@@H]2CN(CCc3c([nH]c4ccccc34)[C@@](C(=O)OC)(c3cc4c(cc3OC)N(C)[C@H]3[C@@](O)(C(=O)NCCCCCCCCN)[C@H](O)[C@]5(CC)C=CCN6CC[C@]43[C@@H]65)C2)C1 [VBL-3Am-ALK(8)-NH2]
Ave. MPA Act. (tubulin): B (B=50-80)
EC50 (MCF-7 breast carcinoma): < 20 nM
EC50 [1]: < 20 nM
EC50 (HUVEC): < 20 nM
EC50 [2]: < 20 nM
EC50 (MCF-7 cells): < 20 nM
EC50 (HT-29 cells): < 20 nM

CC[C@]1(O)C[C@@H]2CN(CCc3c([nH]c4ccccc34)[C@@](C(=O)OC)(c3cc4c(cc3OC)N(C)[C@H]3[C@@](O)(C(=O)NCCCCCCCCCCCCN)[C@H](O)[C@]5(CC)C=CCN6CC[C@]43[C@@H]65)C2)C1 [VBL-3Am-ALK(12)-NH2]
Ave. MPA Act. (tubulin): B (B=50-80)
EC50 (MCF-7 breast carcinoma): < 20 nM
EC50 [1]: < 20 nM
EC50 (HUVEC): < 20 nM
EC50 [2]: < 20 nM
EC50 (MCF-7 cells): < 20 nM
EC50 (HT-29 cells): < 20 nM

CC[C@]1(O)C[C@@H]2CN(CCc3c([nH]c4ccccc34)[C@@](C(=O)OC)(c3cc4c(cc3OC)N(C)[C@H]3[C@@](O)(C(=O)NCCCCCCCCCCCCNC(=O)OC(C)(C)C)[C@H](O)[C@]5(CC)C=CCN6CC[C@]43[C@@H]65)C2)C1 [VBL-3Am-ALK(12)-NH(B)]
Ave. MPA Act. (tubulin): A (A<50)
EC50 (MCF-7 breast carcinoma): 20 to 100 nM
EC50 [1]: 100 to 1000 nM
EC50 (HUVEC): < 20 nM
EC50 [2]: < 20 nM
EC50 (MCF-7 cells): < 20 nM
EC50 (HT-29 cells): < 20 nM

CC[C@]1(O)CC2CN(CCc3c([nH]c4ccccc34)[C@@](C(=O)OC)(c3cc4c(cc3OC)N(C)[C@H]3C(O)(C(=O)NCCOCCOCCOCCN)[C@H](O)[C@]5(CC)C=CCN6CCC43[C@@H]65)C2)C1 (some centres unmarked) [VBL-3Am-PEG(11)-NH2]
Ave. MPA Act. (tubulin): B (B=50-80)
EC50 (MCF-7 breast carcinoma): 20 to 100 nM
EC50 [1]: 20 to 100 nM
EC50 (HUVEC): < 20 nM
EC50 [2]: < 20 nM
EC50 (MCF-7 cells): < 20 nM
EC50 (HT-29 cells): < 20 nM

Ac-EYIYGSFR-PEG(11)-3Am-VBL (N-acetyl, PEG11, vinblastine conjugate)
Average src kinase activity (Human Src): B (B=20-40)
Ave. MPA Act. (tubulin): C (C>80)
EC50 (MCF-7 breast carcinoma): > 100 nM
EC50 [1]: > 100 nM
EC50 (HUVEC): > 100 nM
EC50 [2]: > 100 nM
EC50 (MCF-7 cells): > 100 nM
EC50 (HT-29 cells): > 100 nM

Ac-EYIyGSFK-PEG(13)-10Ca-PXL (EYIYGSFK; not fully specified)
Average src kinase activity (Human Src): Zero
Ave. MPA Act. (tubulin): C (C>80)
EC50 (MCF-7 breast carcinoma): > 100 nM
EC50 [1]: > 100 nM
EC50 (HUVEC): > 100 nM
EC50 [2]: > 100 nM
EC50 (MCF-7 cells): > 100 nM
EC50 (HT-29 cells): > 100 nM

Ac-YIYGSFR-PEG(11)-3Am-VBL (N-acetyl; PEG(11) linker; vinblastine conjugate)
Average src kinase activity (Human Src): C (C>40)
Ave. MPA Act. (tubulin): B (B=50-80)
EC50 (MCF-7 breast carcinoma): 20 to 100 nM
EC50 [1]: 20 to 100 nM
EC50 (HUVEC): > 100 nM
EC50 [2]: > 100 nM
EC50 (MCF-7 cells): 20 to 100 nM
EC50 (HT-29 cells): > 100 nM

BOC-E(Bzl)YIFGSFK(BOC)-PEG(11)-3Am-VBL
Average src kinase activity (Human Src): A (A<20)
Ave. MPA Act. (tubulin): A (A<50)
EC50 (MCF-7 breast carcinoma): 20 to 100 nM
EC50 [1]: > 100 nM
EC50 (HUVEC): > 100 nM
EC50 [2]: > 100 nM
EC50 (MCF-7 cells): < 20 nM
EC50 (HT-29 cells): 20 to 100 nM

BOC-EYIYGSFK(BOC)-PEG(11)-3Am-VBL (N-BOC; BOC side chain; PEG(11); vinblastine conjugate)
Average src kinase activity (Human Src): B (B=20-40)
Ave. MPA Act. (tubulin): C (C>80)
EC50 (MCF-7 breast carcinoma): > 100 nM
EC50 [1]: > 100 nM
EC50 (HUVEC): > 100 nM
EC50 [2]: > 100 nM
EC50 (MCF-7 cells): > 100 nM
EC50 (HT-29 cells): > 100 nM

BOC-YIYGSFR-PEG(11)-3Am-VBL (N-BOC; PEG(11) linker; vinblastine conjugate)
Average src kinase activity (Human Src): B (B=20-40)
Ave. MPA Act. (tubulin): C (C>80)
EC50 (MCF-7 breast carcinoma): > 100 nM
EC50 [1]: > 100 nM
EC50 (HUVEC): > 100 nM
EC50 [2]: > 100 nM
EC50 (MCF-7 cells): > 100 nM
EC50 (HT-29 cells): > 100 nM

CBz-E(Bzl)YIFGSFK-PEG(11)-3Am-VBL (CBz-Glu(Bzl) N-terminal; PEG(11); vinblastine conjugate)
Average src kinase activity (Human Src): C (C>40)
Ave. MPA Act. (tubulin): B (B=50-80)
EC50 (MCF-7 breast carcinoma): > 100 nM
EC50 [1]: > 100 nM
EC50 (HUVEC): > 100 nM
EC50 [2]: > 100 nM
EC50 (MCF-7 cells): > 100 nM
EC50 (HT-29 cells): > 100 nM

Pv-E(Bzl)YIYGSFK(CBz)-PEG(13)-10Ca-PXL (Piv-E(OBn)YIYGSFK(Cbz)-{PEG(13)″-10Ca-PXL}; also: TFA salt)
Average src kinase activity (Human Src): A (A<20)
Ave. MPA Act. (tubulin): A (A<50)
EC50 (MCF-7 breast carcinoma): > 100 nM
EC50 [1]: > 100 nM
EC50 (HUVEC): > 100 nM
EC50 [2]: > 100 nM
EC50 (MCF-7 cells): 20 to 100 nM
EC50 (HT-29 cells): > 100 nM

Pv-E(DMAB)YIYGSFR-PEG(11)-3Am-VBL (EYIYGSFR)
Average src kinase activity (Human Src): A (A<20)
Ave. MPA Act. (tubulin): B (B=50-80)
EC50 (MCF-7 breast carcinoma): 20 to 100 nM
EC50 [1]: > 100 nM
EC50 (HUVEC): 20 to 100 nM
EC50 [2]: > 100 nM
EC50 (MCF-7 cells): 20 to 100 nM
EC50 (HT-29 cells): 20 to 100 nM

Pv-EYIYGSFR-PEG(13)-10Ca-PXL (Piv-EYIYGSFR-{PEG(13)-10Ca‑PXL})
Average src kinase activity (Human Src): B (B=20-40)
Ave. MPA Act. (tubulin): B (B=50-80)
EC50 (MCF-7 breast carcinoma): > 100 nM
EC50 [1]: > 100 nM
EC50 (HUVEC): > 100 nM
EC50 [2]: > 100 nM
EC50 (MCF-7 cells): > 100 nM
EC50 (HT-29 cells): > 100 nM

Pv-YIFGSFR-PEG(13)-10Ca-PXL (Piv-YIFGSFR-{PEG(13)″-10Ca‑PXL}; also: TFA salt)
Average src kinase activity (Human Src): Zero
Ave. MPA Act. (tubulin): A (A<50)
EC50 (MCF-7 breast carcinoma): > 100 nM
EC50 [1]: > 100 nM
EC50 (HUVEC): > 100 nM
EC50 [2]: > 100 nM
EC50 (MCF-7 cells): 20 to 100 nM
EC50 (HT-29 cells): > 100 nM

Pv-YIYGSFR-PEG(11)-3Am-VBL (Piv-YIYGSFR-{PEG(11)-3Am‑VBL})
Average src kinase activity (Human Src): B (B=20-40)
Ave. MPA Act. (tubulin): C (C>80)
EC50 (MCF-7 breast carcinoma): > 100 nM
EC50 [1]: > 100 nM
EC50 (HUVEC): > 100 nM
EC50 [2]: > 100 nM
EC50 (MCF-7 cells): > 100 nM
EC50 (HT-29 cells): > 100 nM
